Experiments:
[1] = test system: healthy male volunteers; assay: Phase 1 clinical test, multi dose escalation: adverse reactions; type: in vivo, human
Method: In order to evaluate the safety at the time of a repeated dose of a test drug, a phased clinical test was conducted as determined by the Data Safety Monitoring Board (DSMB) on 24 subjects (8 subjects per cohort: 6 subjects in test group and 2 subjects in placebo group) in 3 dose groups (repeated administration of 150 mg, 300 mg, and 450 mg seven times at intervals of 12 hours) selected from healthy male volunteers in Korea.
A test drug or placebo was mixed with an infusion solution by intravenous injection therapy, and then administered using an infusion pump for 60 minutes (±10 minutes), and the same was repeatedly administered seven times at intervals of 12 hours.
Of the 24 test subjects who were administered the clinical test drug, a total of 7 test subjects developed 12 adverse reactions, and among them, 10 cases were confirmed to be adverse drug reactions. One case (one person) of an adverse reaction occurred in the placebo-administered group. […] Accordingly, it was determined that the tolerability of about 150 to 450 mg of the test drug during the repeated administration at intervals of 12 hours was good.

[2] = Population pharmacokinetics model (NONMEM) built on single dose phase 1 data; parameters: species or system human
Method: A pharmacokinetics model for administration of a test drug was established for integration with a quantitative pharmacokinetics model for simulating the efficacy and safety of test drugs, as well as simulating the pharmacokinetics of future doses and dosage regimens. The simulation was performed by constructing a pharmacokinetics model based on pharmacokinetics information and demographic information of a total of 30 test subjects who were administered 35 mg, 75 mg, 150 mg, 300 mg, and 600 mg among the test subjects who participated in the single dose clinical test of test drug phase 1. The analysis was performed by a non-linear mixed effect modeling method using NONMEM® (version 7.2; ICON Development Solutions, Ellicott City, Md., USA).
The population pharmacokinetics model was constructed in the order of structural model construction, covariate analysis, and model selection. As a first step, a basic structural model was constructed, and as a step of establishing a model capable of best explaining the change in drug concentration over time, the most pharmacologically and statistically suitable model was selected by performing a search in the order of a 1-compartment model, a 2-compartment model, and a 3-compartment model. As the next step, covariate analysis was performed, and the effects of age, height, body weight, serum creatine, BUN, albumin, AST, and ALT concentrations which are part of the demographic information on pharmacokinetics were quantitatively evaluated. Finally, model selection (internal validation) was performed, a simulation of the established model was performed, and this was evaluated by a visual predictive check (VPC), which is a schematic evaluation method.
The pattern of time-blood concentration changes of the test drug is best explained by a 3-compartment model with 1st order elimination. No significant covariate was found in the covariate analysis utilizing age, height, body weight, serum creatine, BUN, albumin, AST, and ALT concentrations.

[3] = repeated dose 150-450 mg, seven times at 12 h intervals
[4] = 3-compartment model, structural model
[5] = interindividual variability, predicted value

Structure (SMILES): CCOc1cc(CN2CCOCC2)cc2[nH]c(=O)c3c(c12)NCCC3.Cl.Cl [Test drug, 10-ethoxy-8-(morpholinomethyl)-1,2,3,4-tetrahydrobenzo[h][1,6]naphthyridin-5(6H)-one dihydrochloride]
- test subjects who developed adverse reactions ([1]; 150, 300, 450 mg IV over 60 minutes, seven times at intervals of 12 hours, of the 24 test subjects, includes one person in placebo group): 7
- tolerability during repeated administration ([1]; about 150 to 450 mg at intervals of 12 hours): good
- significant adverse reactions ([1]; repeated dose 150-450 mg, entire clinical test): no significant adverse reactions occurred
- adverse reactions confirmed to be adverse drug reactions, cases [1, 3]: 10
- severity of adverse reactions [1, 3]: mild
- number of adverse reactions ([1]; repeated dose 150-450 mg, seven times at 12 h intervals, 24 test subjects, one case in placebo group): 12
- 1st Clearance of peripheral compartment (Q1), predicted value [2, 4]: 162 L/h
- 1st Volume of peripheral compartment (V2), predicted value [2, 4]: 58.5 L
- 2nd Clearance of peripheral compartment (Q2), predicted value [2, 4]: 2.66 L/h
- 2nd Volume of peripheral compartment (V3), predicted value [2, 4]: 8.81 L
- Volume of central compartment (V1), predicted value [2, 4]: 15.2 L
- Clearance of central compartment (CL), predicted value ([2]; 3-compartment model, structural model, 30 subjects, 35-600 mg IV): 32.0 L/h
- Interindividual model CL [2, 5]: 43.8%
- Interindividual model Q1 [2, 5]: 41.7%
- Interindividual model Q2 [2, 5]: 28.1%
- Interindividual model V1 [2, 5]: 52.4%
- Interindividual model V2 [2, 5]: 20.2%
- Interindividual model V3 [2, 5]: 64.1%

Source: patent US20220265671A1, “METHOD FOR TREATING STROKE BY USING TRICYCLIC DERIVATIVE” (Jeil Pharmaceutical Co., Ltd., priority 2019, published 2022)
